From patent publication US9290768B2, “Engineered microorganisms having resistance to ionic liquids” (priority 2012, dated 2016) come the findings set out here.

The structures appear in SMILES notation.

Assay [1] has as its system E. coli expressing the transporter gene. The format is cell-based. The settings on record: ionic liquids at equimolar levels; MFS1-expressing E. coli. As for the experimental part:
Top line, MFS/[C2mim]Cl; Second line from top, MFS/C2mim]Oac; Second line from bottom, empty vector//[C2mim]Cl; Bottom, line empty vector/C2mim]Oac
In one experiment, E. coli expressing the transporter gene were also cultured in media differing only in the type of imidazolium ionic liquid (at equimolar levels), to assess the influence of aliphatic chain lengths of the cation, and the anions Cl—, BuSO4-, and acetate.

The test system of assay [2] is TetR-repressor. The assay can be described thus: MFS1-GFP fusion protein fluorescence (flow-cytometry), induction of repressor. The format is cell-based, Enterobacter lignolyticus. The conditions noted are these: FIG. 5. The method, then: FIG. 5 provides illustrative data showing that [C2mim]Cl-inducible TetR-repressor regulates MFS-expression. […] In the absence of this repressor, the intergenic promoter-region was constitutively turned on (left columns in bar graph compared to right columns).
An SCF1 library was constructed using 30-50 kb genomic DNA inserts in fosmid vectors, and E. coli transformants were plated on 2% [C2mim]Cl for initial selection. GFP-fluorescence was measured by flow-cytometry.
In the absence of this repressor, the intergenic promoter-region was constitutively turned on.

Assay [3] relates to Enterobacter lignolyticus SCF1. The assay can be described thus: Growth of soil isolate in ionic liquid (IL resistance testing). The format is cell-based. The settings on record: Enterobacter lignolyticus SCF1, tropical rain forest soil isolate. The source says: In testing for IL resistance in a tropical rain forest soil community, a bacterium that grows in up to 8% 1-ethyl-3-methylimidazolium chloride ([C2mim]Cl) was isolated. It is a Gram-negative anaerobe that is both lignocellulolytic and halotolerant: Enterobacter lignolyticus SCF1 (DeAngelis, et al., Standards in Genomic Sciences 5:69-85, 2011; Khudyakov, et al., Global transcriptome response to ionic liquid by a tropical rain forest soil bacterium, Enterobacter lignolyticus. Proc. Natl. Acad. Sci USA, 2012). We examined SCF1 to identify genes contributing to IL tolerance using various analyses, including screening an E. coli fosmid library containing SCF1 genomic DNA.

Assay [4] concerns E. coli containing an expression plasmid encoding the entire 2.6 kbp insert. The assay can be described thus: Growth of E. coli carrying the 2.6 kbp SCF1 insert at different levels of [C2mim]Cl (shake flask growth assay). Type of assay: cell-based. The settings on record: E. coli clones comprising the mfs1 gene sequence; FIG. 3. An excerpt: FIG. 3 provides data from a 50-ml shake flask growth assay showing the resistance of E. coli containing the 2606 bp region to 4% and 6% [C2mim]Cl. Top panel: lines correspond to E. coli with common sequence; Enterobacter lignolyticus; and E. coli with empty vector; Middle panel (lines designated using hour 6 as a reference point): top line, E. coli with common sequence; middle line, Enterobacter lignolyticus; bottom line, E. coli with empty vector. Bottom panel: top line, E. coli with common sequence; middle line, Enterobacter lignolyticus; bottom line, E. coli with empty vector
SCF1 cells and E. coli containing an expression plasmid encoding the entire 2.6 kbp insert were tested at different levels of [C2mim]Cl.

Assay [5] relates to E. coli. The assay can be described thus: Methyl viologen tolerance of E. coli expressing MFS1. Type of assay: cell-based. The settings on record: FIG. 6. The source says: Bottom solid lines are empty vector and tetR-mfs.
The closest homologue of MFS1 is a methyl viologen transporter protein in K. oxytoca. MFS1 conferred tolerance to this compound in E. coli (FIG. 6).

In the case of `CC(=O)[O-].CCn1cc[n+](C)c1` [[C2mim]-Acetate, 1-ethyl-3-methylimidazolium acetate], the “tolerance of E. coli expressing the transporter gene to the ionic liquid” value in assay [1] is recorded as “confers tolerance”.
As to `CCn1cc[n+](C)c1.[Cl-]` [[C2mim]Cl, 1-ethyl-3-methylimidazolium chloride], the “induction of the TetR-repressor / regulation of MFS1-expression” value in assay [2] is “inducible”. The “ionic liquid level in which the bacterium grows” value in assay [3] is “up to 8%”. Moreover, the “ionic liquid level at which the clones exhibited resistance” value in assay [4] was “at least 6%”.
In the case of `CCCCn1cc[n+](C)c1.[Cl-]` [BMIM-Cl, 1-butyl-3-methylimidazolium chloride], the “tolerance of E. coli expressing the transporter gene to the ionic liquid” value in assay [1] is “lower tolerance than with EMIM-Cl”.
For the compound `C[n+]1ccc(-c2cc[n+](C)cc2)cc1` [methyl viologen], the “tolerance of E. coli conferred by MFS1” value in assay [5] was “confers tolerance”.
